≈ marks a conversion by molar mass, not a printed value.
Legend:
[1] = Aqueous solubility of compound; type: physicochemical; details: buffer
[2] = Lipophilicity, log D of the compound at pH 7.4 by chromatographic method; type: physicochemical; details: buffer
[3] = AUC (0 to infinity) in po dosed rat; type: ADME, organism-based; set-up: route po; details: in vivo
[4] = Half life in po dosed rat; type: ADME, organism-based; details: in vivo
[5] = Volume of distribution at steady state in po dosed rat; type: ADME, organism-based; details: in vivo
[6] = Cmax in po dosed rat; type: ADME, organism-based; set-up: route po; details: in vivo
[7] = Artificial membrane permeability of compound; type: physicochemical; details: PAMPA; read-out: permeability
[8] = Clearance in po dosed rat; type: ADME, organism-based; details: in vivo
[9] = Oral bioavailability in rat; type: ADME, organism-based; details: in vivo

Row | solubility [1] [µg/mL] | chromatographic logD [2] | Compound | other results
1 | 169 (≈ 466 µM) | 4.2 | CCN(CC)c1ccc(-c2nc3cnccn3c2Cc2coc(C)n2)cn1 | –
2 | > 65 | 4.9 | CCN(CC)c1ccc(-c2nn3ccncc3c2Cc2coc(C)n2)cn1 | –
3 | – | 6.9 | CCOCCn1c(-c2ccc(N(CC)CC)nc2)nc(Br)c1Br | –
4 | 92 (≈ 255 µM) | 5.4 | CCN(CC)c1ccc(-n2nc3ccccc3c2Cc2coc(C)n2)cn1 | –
5 | 38 (≈ 109 µM) | 7.2 | CCOCCc1cc2ccccc2nc1-c1ccc(N(CC)CC)nc1 | –
6 | 46 (≈ 127 µM) | 5.4 | CCN(CC)c1ccc(-c2nn3ccccc3c2Cc2coc(C)n2)cn1 | –
7 | – | 4.2 | CCOCCn1ccnc1-c1ccc(N(CC)CC)nc1 | –
8 | – | 3.7 | CCN(CC)c1ccc(-c2nc3nccnc3n2Cc2coc(C)n2)cn1 | –
9 | 90 (≈ 237 µM) | 6.2 | CCOCCc1c(-c2ccc(N(CC)CC)nc2)c(=O)n(C)c2ccccc12 | –
10 | – | 7.4 | CCOCCc1cc(Cl)cnc1-c1ccc(N(CC)CC)nc1 | –
11 | 80 (≈ 206 µM) | 4.7 | Cc1nc(Cc2c(-c3ccc(N4[C@@H](C)CC[C@@H]4C)nc3)nc3cccnn23)co1 | AUC(0-inf) [3]: 108 ng·h/mL; half-life [4]: 14.4 min; Vdss [5]: 3.1 L/kg; Cmax [6]: 220 ng/mL; Papp [7]: 57 ×10⁻⁶ cm/s; clearance [8]: 180 mL/min/kg
12 | 65 (≈ 180 µM) | 5.1 | CCN(CC)c1ccc(-c2nc3ccccc3n2Cc2coc(C)n2)cn1 | AUC(0-inf) [3]: 126 ng·h/mL; half-life [4]: 13.2 min; Vdss [5]: 2.1 L/kg; Cmax [6]: 180 ng/mL; Papp [7]: 68 ×10⁻⁶ cm/s; bioavailability [9]: < 5%; clearance [8]: 160 mL/min/kg
13 | – | 5.4 | CCOCCc1cccnc1-c1ccc(N(CC)CC)nc1 | –
14 | 19 (≈ 52 µM) | 5 | CCOCCc1c(-c2ccc(N(CC)CC)nc2)c(=O)[nH]c2ccccc12 | –
15 | – | 7.4 | CCOCCc1nc2ccccc2nc1-c1ccc(N(CC)CC)nc1 | –
16 | 33 (≈ 94.4 µM) | 7 | CCOCCc1c(-c2ccc(N(CC)CC)nc2)ncc2ccccc12 | –
17 | ≥ 187 | 5 | CCN(CC)c1ccc(-c2nc3cccnn3c2Cc2coc(C)n2)cn1 | AUC(0-inf) [3]: 94 ng·h/mL; half-life [4]: 13.2 min; Vdss [5]: 2.4 L/kg; Cmax [6]: 110 ng/mL; Papp [7]: 68.5 ×10⁻⁶ cm/s; clearance [8]: 190 mL/min/kg
18 | ≥ 142 | 4.9 | CCN(CC)c1ccc(-c2nn3cccnc3c2Cc2coc(C)n2)cn1 | –
19 | 67 (≈ 198 µM) | 6 | CCOCCn1c(-c2ccc(N(CC)CC)nc2)nc2ccccc21 | –
20 | ≥ 119 | 3 | CCN(CC)c1ccc(-c2nc3ncncc3n2Cc2coc(C)n2)cn1 | –
21 | ≥ 112 | 1.5 | CCN(CC)c1ccc(-c2nc3ncccn3c2Cc2coc(C)n2)cn1 | –
22 | – | 8 | CCOCCc1cc(-c2ccc(N(CC)CC)nc2)nc2ccccc12 | –
23 | – | 6.9 | CCOCCc1c(-c2ccc(N(CC)CC)nc2)cnc2ccccc12 | –
